In PubChem BioAssay AID192 (DTP/NCI, 2004):
Where “and” joins values, the source holds several entries; their conditions need not be identical. Equal entries are not always repeated. Toxic doses and inconclusive results are not listed. Numbered stars: 1 amine (or outer) side, 2 acyl side, 3 side chain; on linkers, the order of the positions; unused ones are H or OH. Bridge positions count the residues as written; N and C are the ends. Square brackets hold non-standard residues; d marks the D form. Peptide text beside a SMILES is read from it. I, II: the chains in the order shown. ξ: configuration not given here. Actinocin(9to1) = Cc1c2oc3c(C)ccc(C(=O)[*:1])c3nc-2c(C(=O)[*:2])c(N)c1=O; ξPro(4ξ-Me) = CC1CNC(C(=O)O)C1; NMeV = CN[CH](C(=O)O)C(C)C; Sar = CNCC(=O)O

System: BDF1 mice, B16 melanoma ip, median survival T/C
Assay: NCI In Vivo Anticancer Drug Screen. Data for tumor model B16 Melanoma (intraperitoneal) in B6D2F1 (BDF1) mice
Conditions: endpoint: median survival time, higher = longer survival
How it was run: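 Survival or tumor size is measured after treatment of tumor-bearing mice and normalised to the vehicle-treated control group.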

[1] = dose: 5.0 mg/kg/injection, schedule: Q01DX009 (ip), vehicle: saline with Tween-80
[2] = dose: 10.0 mg/kg/injection, schedule: Q01DX009 (ip), vehicle: saline with Tween-80
[3] = dose: 12.5 mg/kg/injection, schedule: Q01DX009 (ip), vehicle: saline with Tween-80
[4] = dose: 20.0 mg/kg/injection, schedule: Q01DX009 (ip), vehicle: saline with Tween-80
[5] = dose: 25.0 mg/kg/injection, schedule: Q01DX009 (ip), vehicle: saline with Tween-80
[6] = dose: 50.0 mg/kg/injection, schedule: Q01DX009 (ip), vehicle: saline with Tween-80
[7] = dose: 4.0 mg/kg/injection, schedule: Q01DX009 (ip), vehicle: Klucel (hydroxypropylcellulose) (HPC)
[8] = dose: 8.0 mg/kg/injection, schedule: Q01DX009 (ip), vehicle: Klucel (hydroxypropylcellulose) (HPC)
[9] = dose: 50.0 mg/kg/injection, schedule: Q01DX009 (ip), vehicle: Klucel (hydroxypropylcellulose) (HPC)
[10] = dose: 100.0 mg/kg/injection, schedule: Q01DX009 (ip), vehicle: Klucel (hydroxypropylcellulose) (HPC)
[11] = dose: 200.0 mg/kg/injection, schedule: Q01DX009 (ip), vehicle: Klucel (hydroxypropylcellulose) (HPC)

Nc1cccc(=O)[nH]1
T/C (dose: 12.5 mg/kg/injection, schedule: Q01DX009 (ip), vehicle: saline): 90 % of control
T/C (dose: 25.0 mg/kg/injection, schedule: Q01DX009 (ip), vehicle: saline): 98 % of control
T/C (dose: 50.0 mg/kg/injection, schedule: Q01DX009 (ip), vehicle: saline): 98 % of control
T/C (dose: 100.0 mg/kg/injection, schedule: Q01DX009 (ip), vehicle: saline): 98 % of control
T/C (dose: 200.0 mg/kg/injection, schedule: Q01DX009 (ip), vehicle: saline): 90 % of control
T/C (dose: 400.0 mg/kg/injection, schedule: Q01DX009 (ip), vehicle: saline): 92 % of control

COc1ccc(N=NNc2ccc(OC)cc2)cc1
T/C [1]: 106 % of control
T/C (dose: 6.25 mg/kg/injection, schedule: Q01DX009 (ip), vehicle: saline with Tween-80): 90 % of control and 94 % of control
T/C (dose: 6.25 mg/kg/injection, schedule: Q04DX003 (ip), vehicle: saline with Tween-80): 97 % of control and 105 % of control
T/C [2]: 109 % of control
T/C [3]: 86 % of control and 94 % of control
T/C (dose: 12.5 mg/kg/injection, schedule: Q04DX003 (ip), vehicle: saline with Tween-80): 107 % of control and 113 % of control
T/C (dose: 16.5 mg/kg/injection, schedule: Q04DX003 (ip), vehicle: saline with Tween-80): 95 % of control
T/C [4]: 109 % of control
T/C [5]: 93 % of control and 94 % of control
T/C (dose: 25.0 mg/kg/injection, schedule: Q04DX003 (ip), vehicle: saline with Tween-80): 100 % of control and 107 % of control
T/C (dose: 37.5 mg/kg/injection, schedule: Q04DX003 (ip), vehicle: saline with Tween-80): 100 % of control
T/C (dose: 40.0 mg/kg/injection, schedule: Q01DX009 (ip), vehicle: saline with Tween-80): 112 % of control
T/C [6]: 97 % of control
T/C (dose: 50.0 mg/kg/injection, schedule: Q04DX003 (ip), vehicle: saline with Tween-80): 110 % of control

C=C1C(=O)OC2C=C(C)CC3C=C(CCC=C(C)CCC12)C(=O)O3 (centres undefined)
T/C [7]: 90 % of control
T/C [8]: 105 % of control
T/C (dose: 16.0 mg/kg/injection, schedule: Q01DX009 (ip), vehicle: Klucel (hydroxypropylcellulose) (HPC)): 116 % of control
T/C (dose: 32.0 mg/kg/injection, schedule: Q01DX009 (ip), vehicle: Klucel (hydroxypropylcellulose) (HPC)): 101 % of control

CC1CCN(c2ccc([N+](=O)[O-])cc2[N+](=O)[O-])CC1
T/C [9]: 100 % of control
T/C [10]: 100 % of control
T/C [11]: 112 % of control

O=C(O)C(c1ccccc1)C1CCCC1 (centres undefined)
T/C [3]: 109 % of control
T/C [5]: 111 % of control
T/C [6]: 94 % of control and 106 % of control

O=C(O)CCC(=O)CCC(=O)c1ccccc1
T/C [6]: 95 % of control
T/C (dose: 100.0 mg/kg/injection, schedule: Q01DX009 (ip), vehicle: saline with Tween-80): 100 % of control
T/C (dose: 200.0 mg/kg/injection, schedule: Q01DX009 (ip), vehicle: saline with Tween-80): 93 % of control

Nc1nc(N)c(-c2ccc(Cl)c(Cl)c2)c(CP(Cl)(Cl)(Cl)Br)n1
T/C (dose: 6.3 mg/kg/injection, schedule: Q01DX009 (ip), vehicle: Klucel (hydroxypropylcellulose) (HPC)): 112 % of control
T/C (dose: 12.5 mg/kg/injection, schedule: Q01DX009 (ip), vehicle: Klucel (hydroxypropylcellulose) (HPC)): 111 % of control
T/C (dose: 25.0 mg/kg/injection, schedule: Q01DX009 (ip), vehicle: Klucel (hydroxypropylcellulose) (HPC)): 115 % of control
T/C [9]: 123 % of control

Cc1nc2ccc(CCN3CCN(c4ccccc4Cl)CC3)cc2[nH]1
T/C (dose: 4.12 mg/kg/injection, schedule: Q01DX009 (ip), vehicle: saline): 90 % of control
T/C (dose: 8.25 mg/kg/injection, schedule: Q01DX009 (ip), vehicle: saline): 92 % of control

Cc1c2oc3c(C)ccc(C(=O)NC4C(=O)NC(C(C)C)C(=O)N5CC(C)CC5C(=O)N(C)CC(=O)N(C)C(C(C)C)C(=O)OC4C)c3nc-2c(C(=O)NC2C(=O)NC(C(C)C)C(=O)N3CC(C)CC3C(=O)N(C)CC(=O)N(C)C(C(C)C)C(=O)OC2C)c(N)c1=O (centres undefined) (I: TV[ξPro(4ξ-Me)][Sar][NMeV] / II: TV[ξPro(4ξ-Me)][Sar][NMeV]; ester I:1-I:C, II:1-II:C; linker I:N-II:N via Actinocin(9to1); configuration not given here)
T/C (dose: 3.24 mg/kg/injection, schedule: Q04DX003 (ip), vehicle: saline + alcohol): 163 % of control
T/C (dose: 3.6 mg/kg/injection, schedule: Q04DX003 (ip), vehicle: saline + alcohol): 123 % of control
T/C (dose: 5.4 mg/kg/injection, schedule: Q04DX003 (ip), vehicle: saline + alcohol): 153 % of control
T/C (dose: 9.0 mg/kg/injection, schedule: Q04DX003 (ip), vehicle: saline + alcohol): 207 % of control
T/C (dose: 15.0 mg/kg/injection, schedule: Q04DX003 (ip), vehicle: saline + alcohol): 188 % of control
T/C (dose: 259.0 micrograms/kg/injection, schedule: Q01DX009 (ip), vehicle: saline + alcohol): 114 % of control
T/C (dose: 432.0 micrograms/kg/injection, schedule: Q01DX009 (ip), vehicle: saline + alcohol): 122 % of control
T/C (dose: 720.0 micrograms/kg/injection, schedule: Q01DX009 (ip), vehicle: saline + alcohol): 118 % of control
T/C (dose: 1200.0 micrograms/kg/injection, schedule: Q01DX009 (ip), vehicle: saline + alcohol): 123 % of control

C[CH2][Pb]([CH2]C)([CH2]C)[O]C(=O)COC
T/C (dose: 1.56 mg/kg/injection, schedule: Q01DX009 (ip), vehicle: Klucel (hydroxypropylcellulose) (HPC)): 96 % of control
T/C (dose: 3.13 mg/kg/injection, schedule: Q01DX009 (ip), vehicle: Klucel (hydroxypropylcellulose) (HPC)): 105 % of control

C=C(C)C12CC(C)C34OC5(CCCCCCCC(C)C6C(C)C(OC(=O)c7ccccc7)C(O)(C(O)C7(COC(=O)CCCCCCCCCCCCCCC)OC7C3C1O5)C64)O2 (centres undefined)
T/C (dose: 1.5 micrograms/kg/injection, schedule: Q01DX009 (ip), vehicle: saline): 107 % of control
T/C (dose: 1.9 micrograms/kg/injection, schedule: Q01DX009 (ip), vehicle: Klucel (hydroxypropylcellulose) (HPC)): 102 % of control
T/C (dose: 3.1 micrograms/kg/injection, schedule: Q01DX009 (ip), vehicle: saline): 100 % of control
T/C (dose: 3.8 micrograms/kg/injection, schedule: Q01DX009 (ip), vehicle: Klucel (hydroxypropylcellulose) (HPC)): 88 % of control
T/C (dose: 6.2 micrograms/kg/injection, schedule: Q01DX009 (ip), vehicle: saline): 104 % of control
T/C (dose: 7.5 micrograms/kg/injection, schedule: Q01DX009 (ip), vehicle: Klucel (hydroxypropylcellulose) (HPC)): 98 % of control
T/C (dose: 12.5 micrograms/kg/injection, schedule: Q01DX009 (ip), vehicle: saline): 95 % of control
T/C (dose: 15.0 micrograms/kg/injection, schedule: Q01DX009 (ip), vehicle: Klucel (hydroxypropylcellulose) (HPC)): 87 % of control
T/C (dose: 25.0 micrograms/kg/injection, schedule: Q01DX009 (ip), vehicle: saline): 102 % of control
T/C (dose: 50.0 micrograms/kg/injection, schedule: Q01DX009 (ip), vehicle: saline): 96 % of control

NC1=NN(c2ccccc2)CC1
T/C (dose: 0.5 mg/kg/injection, schedule: Q04DX003 (ip), vehicle: saline with Tween-80): 95 % of control
T/C [1]: 104 % of control
T/C [2]: 100 % of control
T/C (dose: 10.0 mg/kg/injection, schedule: Q04DX003 (ip), vehicle: saline with Tween-80): 95 % of control
T/C [4]: 100 % of control
T/C (dose: 20.0 mg/kg/injection, schedule: Q04DX003 (ip), vehicle: saline with Tween-80): 95 % of control

Brc1cnc(OCc2ccccc2)nc1OCc1ccccc1
T/C [10]: 118 % of control
T/C [11]: 110 % of control
T/C (dose: 400.0 mg/kg/injection, schedule: Q01DX009 (ip), vehicle: Klucel (hydroxypropylcellulose) (HPC)): 107 % of control

CC(C)Nc1ncnc2[nH]ncc12
T/C (dose: 1.0 mg/kg/injection, schedule: Q01DX009 (ip), vehicle: Klucel (hydroxypropylcellulose) (HPC)): 96 % of control
T/C (dose: 2.0 mg/kg/injection, schedule: Q01DX009 (ip), vehicle: Klucel (hydroxypropylcellulose) (HPC)): 105 % of control
T/C [7]: 94 % of control
T/C [8]: 102 % of control

Oc1ccccc1OCc1ccccc1
T/C (dose: 100.0 mg/kg/injection, schedule: Q04DX003 (ip), vehicle: Klucel (hydroxypropylcellulose) (HPC)): 107 % of control
T/C (dose: 200.0 mg/kg/injection, schedule: Q04DX003 (ip), vehicle: Klucel (hydroxypropylcellulose) (HPC)): 105 % of control
T/C (dose: 400.0 mg/kg/injection, schedule: Q04DX003 (ip), vehicle: Klucel (hydroxypropylcellulose) (HPC)): 105 % of control

O=C(Nc1ccccc1C(F)(F)F)C(c1ccccc1)c1ccccc1
T/C [3]: 101 % of control
T/C [5]: 98 % of control
T/C [6]: 97 % of control
